Laboratory results published in patent US20020182240A1, “Cosmetics with hydrofluoroether (HFE)” (Daikin Industries, priority 1997, published 2002).

How the values were obtained:
the skin = experiment: use of the cosmetic applied onto the skin (feeling in use, evaporation of the HFE, skin moisture); format: in vivo; conditions: after the cosmetic was applied onto the skin
Procedure: 50% by weight of a perfluoropolyether (FOMBLIN HC/04 manufactured by Audimont) (viscosity at 25° C.: 70 mPa·s) was mixed with 50% by weight of C4F9OCH3 (HFE A) (viscosity at 25° C.: 0.6 mPa·s) under stirring to give a solution. Thereafter, a very small amount of a perfume was added to give a non-aqueous lotion. This non-aqueous lotion was felt very smooth in use.
The powder ingredients in the formulation shown in Table 2 were mixed and ground with an atomizer and then transferred to a Henschel mixer. Then FOMBLIN HC/04 was added thereto, and the mixture was uniformly mixed. The mixture was dispersed in […] (HFE B) (viscosity at 25° C.: 0.7 mPa·s) to give a solvent dispersion-type foundation. This solvent dispersion-type foundation was felt very smooth in use.
The ingredients (1) to (8) in the formulation shown in Table 3 were mixed and ground in a colloid mill. After this mixture was heated at 80° C., the ingredients (9) to (13) which had been heated and mixed at 80° C. were added thereto and emulsified uniformly in a homomixer. The ingredient (14) was added to this emulsion, further emulsified uniformly in a homomixer, and cooled to room temperature to give a liquid foundation. This liquid foundation was felt very smooth in use. […]

[1] = viscosity by Brookfield type viscometer or capillary tube viscometer; format: physicochemical
Procedure: The viscosity of the fluorine-containing oil is e.g. at least 5 mPa·s, particularly 10 to 10,000 mPa·s. The viscosity of the fluorine oil (and the HFE) was measured by a Brookfield type viscometer or a capillary tube viscometer.

Row | Molecule | evaporation of the HFE (the skin) | viscosity at 25° C. [1]
1 | CCOC(F)(F)C(F)(F)C(F)(F)C(F)(F)F [HFE B, C4F9OC2H5] | evaporated rapidly | 0.7 mPa·s
2 | FC(F)C(F)(F)OCC1(COCC(COC(F)(F)C(F)F)(COC(F)(F)C(F)F)COC(F)(F)C(F)F)COC1 [chemical formula B] |  | 40 mPa·s
3 | C4F9OCH3 [HFE A] | evaporated rapidly | 0.6 mPa·s
